Assay results reported in patent US20220380374A1, “1,4-DIHYDROBENZO[D]PYRAZOLO[3,4-F][1,3]DIAZEPINE DERIVATIVES AND RELATED COMPOUNDS AS LRRK2, NUAK1 AND/OR TYK2 KINASE MODULATORS FOR THE TREATMENT OF E.G. AUTOIMMUNE DISEASE” (Origenis GMBH, priority 2019, published 2022).

Tests used:
[1] = molecular target: T1, wt human TYK2, catalytic site (Homo sapiens, UniProt P29597); test: HTRF KinEASE assay, TYK2; type: biochemical; details: 1 μM ATP; read-out: IC50, inhibitory activity toward TYK2
T1 construct: 2 nM wt human TYK2, catalytic site (SignalChem/CAN); purchased SignalChem/CAN
T1 sequence (P29597 897-1176 limits assumed): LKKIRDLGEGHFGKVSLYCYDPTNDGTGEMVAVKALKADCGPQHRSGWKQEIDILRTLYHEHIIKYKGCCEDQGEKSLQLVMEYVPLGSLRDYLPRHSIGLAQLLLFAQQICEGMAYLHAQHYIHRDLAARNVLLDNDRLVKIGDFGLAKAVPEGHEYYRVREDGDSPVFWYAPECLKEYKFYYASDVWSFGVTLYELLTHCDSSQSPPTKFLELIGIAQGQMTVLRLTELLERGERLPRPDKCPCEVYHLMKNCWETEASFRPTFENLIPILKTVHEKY
Description: Basic protocol for HTRF KinEASE assay (Cisbio/FRA) inhibitor studies involved two steps: Enzymatic step: Addition of 4 μl of test compound in corresponding DMSO dilutions, 4 μl of kinase/substrate mixture, 2 μl of ATP into 384 well small volume plates. Incubation for at least 30 minutes at room temperature.
Detection step: Addition of 5 μl antibody and 5 μl streptavidin-XL665, read plate after 60 minutes. Data analysis of emission ratios according to KinEASE assay protocol.
Kinase and assay components were adjusted to final concentrations according to the kit protocol. For TYK2: 2 nM wt human TYK2, catalytic site (SignalChem/CAN), 1 μM HTRF KinEASE-TK Substrate-biotin, 1 μM ATP in 1× Kinase Buffer

[2] = molecular target: T2, wt human NUAK1, full length (Homo sapiens, UniProt O60285); test: TR-FRET LanthaScreen Eu Kinase Binding Assay, NUAK1; details: 5 nM Kinase Tracer 236; read-out: IC50, inhibitory activity toward NUAK1
T2 construct: 8 nM wt human NUAK1, full length (ThermoFisher/USA); purchased ThermoFisher/USA
T2 sequence (O60285 1-661): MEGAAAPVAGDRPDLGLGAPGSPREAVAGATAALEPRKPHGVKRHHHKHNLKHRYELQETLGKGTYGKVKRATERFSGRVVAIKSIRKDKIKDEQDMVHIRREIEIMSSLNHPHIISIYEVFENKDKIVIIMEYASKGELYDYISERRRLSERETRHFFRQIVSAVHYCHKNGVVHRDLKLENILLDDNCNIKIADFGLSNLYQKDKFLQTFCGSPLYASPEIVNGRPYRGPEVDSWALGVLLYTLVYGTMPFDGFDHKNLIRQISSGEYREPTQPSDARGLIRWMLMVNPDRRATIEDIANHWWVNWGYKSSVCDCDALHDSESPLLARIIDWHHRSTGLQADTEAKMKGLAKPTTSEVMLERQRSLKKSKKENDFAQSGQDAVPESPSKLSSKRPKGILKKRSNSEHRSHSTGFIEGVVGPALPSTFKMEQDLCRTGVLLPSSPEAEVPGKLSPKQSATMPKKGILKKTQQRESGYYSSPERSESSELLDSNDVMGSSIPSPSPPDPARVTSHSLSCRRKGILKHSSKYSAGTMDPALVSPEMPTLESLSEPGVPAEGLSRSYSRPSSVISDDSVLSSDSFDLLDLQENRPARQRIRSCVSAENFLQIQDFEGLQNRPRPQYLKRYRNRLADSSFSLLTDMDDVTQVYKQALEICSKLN
Description: The basic protocol for TR-FRET LanthaScreen Eu Kinase Binding Assay inhibitor studies were performed as follows. LanthaScreen Kinase Binding Assays (ThermoFisher/USA) to evaluate inhibitors were performed by addition of 5 μl of test compound in corresponding DMSO dilutions/5 μl of kinase/antibody mixture, 5 μl of tracer into 384 well small volume plates. After incubation for 1 hour at room temperature, plates were read. Data analysis of emission ratios was according to LanthaScreen Eu Kinase Binding Assay protocol.
Kinase and assay components were adjusted to final concentrations according to the kit protocol. For LRRK2: 5 nM wt human LRRK2, catalytic site, or G2019S human LRRK2, catalytic site (ThermoFisher/USA), 2 nM Eu-Anti-GST Antibody, 10 nM Kinase Tracer 236 in 1× Kinase Buffer A. For NUAK1: 8 nM wt human NUAK1, full length (ThermoFisher/USA), 2 nM Eu-Anti-His Antibody, 5 nM Kinase Tracer 236 in 1× Kinase Buffer A.

IC50 [1] [nM]	IC50 [2] [nM]	SMILES
10 to 100	10 to 100	Fc1cccc(Cl)c1C1=Nc2c(Br)n[nH]c2-c2cccnc2N1 [Compound 88]
100 to 1000	100 to 1000	FC(F)Oc1ccc2c(c1)-c1[nH]ncc1N=C(c1c(Cl)cccc1Cl)N2 [Compound 90, 5-(2,6-dichlorophenyl)-9-(difluoromethoxy)-1,6-dihydrobenzo[d]pyrazolo[3,4-f][1,3]diazepine]
100 to 1000	10 to 100	NC(=O)c1ccc2c(c1)-c1[nH]ncc1NC(c1c(F)cccc1F)=N2 [Compound 93, 5-(2,6-difluorophenyl)-1,4-dihydrobenzo[d]pyrazolo[3,4-f][1,3]diazepine-9-carboxamide]
100 to 1000	10 to 100	NC(=O)c1ccc2c(c1)-c1[nH]ncc1N=C(c1c(F)cccc1Cl)N2 [Compound 94, 5-(2-chloro-6-fluorophenyl)-1,6-dihydrobenzo[d]pyrazolo[3,4-f][1,3]diazepine-9-carboxamide]
< 10	10 to 100	O=C(NC1CCOCC1)c1ccc2c(c1)N=C(c1c(F)cccc1F)Nc1cn[nH]c1-2 [Compound 95, 5-(2,6-difluorophenyl)-N-(tetrahydro-2H-pyran-4-yl)-1,4-dihydrobenzo[d]pyrazolo[3,4-f][1,3]diazepine-8-carboxamide]
10 to 100	10 to 100	CC(C)(O)c1ccc2c(c1)NC(c1c(F)cccc1F)=Nc1cn[nH]c1-2 [Compound 98, 2-(5-(2,6-difluorophenyl)-1,6-dihydrobenzo[d]pyrazolo[3,4-f][1,3]diazepin-8-yl)propan-2-ol]
10 to 100	10 to 100	Fc1cccc(F)c1C1=Nc2cc(OC3CCOCC3)ccc2-c2[nH]ncc2N1 [Compound 99, 5-(2,6-difluorophenyl)-8-((tetrahydro-2H-pyran-4-yl)oxy)-1,4-dihydrobenzo[d]pyrazolo[3,4-f][1,3]diazepine]
100 to 1000	10 to 100	Nc1ccc2c(c1)-c1[nH]ncc1N=C(c1c(F)cccc1F)N2 [Compound 103, 5-(2,6-difluorophenyl)-1,6-dihydrobenzo[d]pyrazolo[3,4-f][1,3]diazepin-9-amine]
10 to 100	100 to 1000	O=C(NC1CCOCC1)c1ccc2c(n1)N=C(c1c(F)cccc1F)Nc1cn[nH]c1-2 [Compound 105, 5-(2,6-difluorophenyl)-N-(tetrahydro-2H-pyran-4-yl)-1,4-dihydropyrazolo[4,3-d]pyrido[3,2-f][1,3]diazepine-8-carboxamide]
100 to 1000	100 to 1000	COc1cccc(F)c1C1=Nc2cn[nH]c2-c2ccccc2N1 [Compound 114, 5-(2-fluoro-6-methoxyphenyl)-1,6-dihydrobenzo[d]pyrazolo[3,4-f][1,3]diazepine]
100 to 1000	10 to 100	Cc1ccc2c(c1)-c1[nH]ncc1N=C(c1c(F)cccc1[N+](=O)[O-])N2 [Compound 125, 5-(2-fluoro-6-nitrophenyl)-9-methyl-1,6-dihydrobenzo[d]pyrazolo[3,4-f][1,3]diazepine]

The remaining lines, values behind:

SMILES	IC50 [1] [nM]	IC50 [2] [nM]
COc1ccc2c(c1)-c1[nH]ncc1N=C(c1c(F)cccc1Cl)N2 [Compound 39, 5-(2-chloro-6-fluorophenyl)-9-methoxy-1,6-dihydrobenzo[d]pyrazolo[3,4-f][1,3]diazepine]	100 to 1000	100 to 1000
Fc1cccc(F)c1C1=Nc2cn[nH]c2-c2cc(OC(F)F)ccc2N1 [Compound 42, 9-(difluoromethoxy)-5-(2,6-difluorophenyl)-1,6-dihydrobenzo[d]pyrazolo[3,4-f][1,3]diazepine]	100 to 1000	10 to 100
Fc1cccc(Cl)c1C1=Nc2cn[nH]c2-c2cc(OC(F)F)ccc2N1 [Compound 43, 5-(2-chloro-6-fluorophenyl)-9-(difluoromethoxy)-1,6-dihydrobenzo[d]pyrazolo[3,4-f][1,3]diazepine]	100 to 1000	10 to 100
CCc1ccc2c(c1)-c1[nH]ncc1N=C(c1c(F)cccc1Cl)N2 [Compound 45, 5-(2-chloro-6-fluorophenyl)-9-ethyl-1,6-dihydrobenzo[d]pyrazolo[3,4-f][1,3]diazepine]	100 to 1000	100 to 1000
COc1ccc2c(c1)N=C(c1c(F)cccc1F)Nc1cn[nH]c1-2 [Compound 49, 5-(2,6-difluorophenyl)-8-methoxy-1,4-dihydrobenzo[d]pyrazolo[3,4-f][1,3]diazepine]	10 to 100	100 to 1000
OCc1ccc2c(c1)-c1[nH]ncc1N=C(c1c(F)cccc1F)N2 [Compound 50, (5-(2,6-difluorophenyl)-1,6-dihydrobenzo[d]pyrazolo[3,4-f][1,3]diazepin-9-yl)methanol]	100 to 1000	10 to 100
Fc1cccc(F)c1C1=Nc2ccncc2-c2[nH]ncc2N1 [Compound 53, 5-(2,6-difluorophenyl)-1,4-dihydropyrazolo[4,3-d]pyrido[3,4-f][1,3]diazepine]	10 to 100	10 to 100
Cc1cnc2c(c1)-c1[nH]ncc1N=C(c1c(F)cccc1F)N2 [Compound 61, 5-(2,6-difluorophenyl)-9-methyl-1,6-dihydropyrazolo[4,3-d]pyrido[3,2-f][1,3]diazepine]	100 to 1000	10 to 100
Fc1cccc(F)c1C1=Nc2cn[nH]c2-c2cc(Cl)cnc2N1 [Compound 64, 9-chloro-5-(2,6-difluorophenyl)-1,6-dihydropyrazolo[4,3-d]pyrido[3,2-f][1,3]diazepine]	100 to 1000	10 to 100
Fc1cccc(F)c1C1=Nc2cn[nH]c2-c2cn(-c3ccccc3)nc2N1 [Compound 68, 5-(2,6-difluorophenyl)-8-phenyl-6,8-dihydro-1H-dipyrazolo[3,4-d:3 ′,4′-f][1,3]diazepine]	10 to 100	10 to 100
Fc1cccc(F)c1C1=Nc2c(Br)n[nH]c2-c2ccccc2N1 [Compound 69, 3-bromo-5-(2,6-difluorophenyl)-1,6-dihydrobenzo[d]pyrazolo[3,4-f][1,3]diazepine]	10 to 100	10 to 100
Fc1cccc(F)c1C1=Nc2cnccc2-c2[nH]ncc2N1 [Compound 71, 5-(2,6-difluorophenyl)-1,4-dihydropyrazolo[4,3-d]pyrido[4,3-f][1,3]diazepine]	10 to 100	< 10
Fc1cccc(F)c1C1=Nc2cn[nH]c2-c2cn[nH]c2N1 [Compound 72, 5-(2,6-difluorophenyl)-6,7-dihydro-1H-dipyrazolo[3,4-d:3′,4′-f][1,3]diazepine]	10 to 100	10 to 100
O=C(O)c1ccc2c(c1)N=C(c1c(F)cccc1F)Nc1cn[nH]c1-2 [Compound 73, 5-(2,6-difluorophenyl)-1,4-dihydrobenzo[d]pyrazolo[3,4-f][1,3]diazepine-8-carboxylic acid]	< 10	10 to 100
Cc1n[nH]c2c1NC(c1c(F)cccc1F)=Nc1ccccc1-2 [Compound 76, 5-(2,6-difluorophenyl)-3-methyl-1,4-dihydrobenzo[d]pyrazolo[3,4-f][1,3]diazepine]	10 to 100	10 to 100
O=C(c1ccc2c(c1)N=C(c1c(F)cccc1Cl)Nc1cn[nH]c1-2)N1CCOCC1 [Compound 78, (5-(2-chloro-6-fluorophenyl)-1,4-dihydrobenzo[d]pyrazolo[3,4-f][1,3]diazepin-8-yl)(morpholino)methanone]	100 to 1000	100 to 1000
